Molecular target: T1, human full-length glucocorticoid receptor (Homo sapiens, UniProt P04150)
T1 construct: recombinantly expressed human full-length glucocorticoid receptor; purchased PanVera Co., Madison, Wis; P2816
T1 sequence (P04150 1-777): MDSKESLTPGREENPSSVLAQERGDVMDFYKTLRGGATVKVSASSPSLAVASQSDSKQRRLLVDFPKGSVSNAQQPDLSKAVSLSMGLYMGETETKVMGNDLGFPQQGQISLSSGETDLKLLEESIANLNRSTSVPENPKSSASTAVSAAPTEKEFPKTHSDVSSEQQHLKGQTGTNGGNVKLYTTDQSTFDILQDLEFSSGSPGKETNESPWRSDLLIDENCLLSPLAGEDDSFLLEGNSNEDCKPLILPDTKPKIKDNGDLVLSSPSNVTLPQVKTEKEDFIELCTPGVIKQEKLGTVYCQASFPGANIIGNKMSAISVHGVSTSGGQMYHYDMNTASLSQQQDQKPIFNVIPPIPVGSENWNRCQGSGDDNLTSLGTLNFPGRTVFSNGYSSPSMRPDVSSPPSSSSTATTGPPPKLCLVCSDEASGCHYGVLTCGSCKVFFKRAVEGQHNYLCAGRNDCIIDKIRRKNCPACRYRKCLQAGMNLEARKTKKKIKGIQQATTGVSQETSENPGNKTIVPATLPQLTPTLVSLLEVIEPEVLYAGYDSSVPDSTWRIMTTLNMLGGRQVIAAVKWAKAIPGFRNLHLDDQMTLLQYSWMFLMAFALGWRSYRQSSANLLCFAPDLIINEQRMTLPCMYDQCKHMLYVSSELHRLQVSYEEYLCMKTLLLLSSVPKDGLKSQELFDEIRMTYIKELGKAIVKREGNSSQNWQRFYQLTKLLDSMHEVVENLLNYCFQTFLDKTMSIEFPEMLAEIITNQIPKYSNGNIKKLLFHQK
Test: Glucocorticoid Receptor Binding Assay (II), fluorescence polarization competitor kit (Fluormone GS1)
Conditions: GR Binding Assay (II)
Summary of the method: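 Cell lysate with recombinant receptor incubated with 1 nM Fluormone GS1 tracer, with or without test compound, for one hour at room temperature. Binding read as displacement by fluorescence polarization.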

Ki	Structure (SMILES)
121 nM	CC(C)(C(=O)Nc1nncs1)C(c1ccc(N2CCOCC2)cc1)c1cccc(F)c1 (single isomer, unassigned) [Example 256, 3-(3-fluorophenyl)-2,2-dimethyl-3-(4-(4-morpholinyl)phenyl)-N-1,3,4-thiadiazol-2-ylpropanamide]
12.9 nM	CC(C)(C(=O)Nc1nccs1)[C@H](c1ccccc1)c1ccc(O)cc1 [Example 326, (3R)-3-(4-hydroxyphenyl)-2,2-dimethyl-3-phenyl-N-1,3-thiazol-2-ylpropanamide]
25.8 nM	CC(C)(C(=O)Nc1nccs1)C(c1ccc(N2CCOCC2)cc1)c1cccc(F)c1 (single isomer, unassigned) [Example 254, 3-(3-fluorophenyl)-2,2-dimethyl-3-(4-(4-morpholinyl)phenyl)-N-1,3-thiazol-2-ylpropanamide]
13.6 nM	Cc1cccc(C(c2ccc(N3CCOCC3)cc2)C(C)(C)C(=O)Nc2nncs2)c1 (stereo not drawn) [Example 235, 2,2-dimethyl-3-(3-methylphenyl)-3-(4-(4-morpholinyl)phenyl)-N-1,3,4-thiadiazol-2-ylpropanamide]

Molecular target: T2, human glucocorticoid receptor (Homo sapiens, UniProt P04150)
T2 construct: purified human recombinant full-length glucocorticoid receptor; purchased Invitrogen Part #2893
T2 sequence (P04150 1-777): T1 sequence (P04150 1-777)
Test: Glucocorticoid Receptor Binding Assay (I), fluorescence polarization competitor kit (Fluormone GS Red)
Conditions: GR Binding Assay (I)
Procedure: Glucocorticoid Receptor Binding Assay (I)^a
In order to assess the affinity of test compounds for the human glucocorticoid receptor, a commercially available kit was used (Glucocorticoid Receptor Competitor Assay Kit, Invitrogen Part #2893). Briefly, purified human recombinant full-length glucocorticoid receptor (2 nM) was mixed with fluorescently labeled glucocorticoid (1 nM Fluormone GS Red) in the presence or absence of test compound. After two hour incubation at room temperature in the dark, the fluorescence polarization (FP) of the samples was measured. […] Test compounds were analyzed in the concentration range from 8.5 E-05 μM to 5 μM.

Structure (SMILES)	Ki
CC(C)(C(=O)Nc1nncs1)C(c1ccc(N2CCOCC2)cc1)c1cccc(F)c1 (single isomer, unassigned) [Example 256, 3-(3-fluorophenyl)-2,2-dimethyl-3-(4-(4-morpholinyl)phenyl)-N-1,3,4-thiadiazol-2-ylpropanamide]	125 nM
CC(C)(C(=O)Nc1nccs1)[C@H](c1ccccc1)c1ccc(O)cc1 [Example 326, (3R)-3-(4-hydroxyphenyl)-2,2-dimethyl-3-phenyl-N-1,3-thiazol-2-ylpropanamide]	18.7 nM
CC(C)(C(=O)Nc1nccs1)C(c1ccc(N2CCOCC2)cc1)c1cccc(F)c1 (single isomer, unassigned) [Example 254, 3-(3-fluorophenyl)-2,2-dimethyl-3-(4-(4-morpholinyl)phenyl)-N-1,3-thiazol-2-ylpropanamide]	104 nM
CC(C)CC(c1ccc(Br)cc1)C(C)(C)C(=O)Nc1nncs1 (stereo not drawn) [Example 387, 3-(4-bromophenyl)-2,2,5-trimethyl-N-1,3,4-thiadiazol-2-ylhexanamide]	17.1 nM
CC(C)(C(=O)Nc1nncs1)C(c1ccccc1)c1ccc(Cc2ccccc2)cc1 (stereo not drawn) [Example 320, 2,2-dimethyl-3-phenyl-3-(4-(phenylmethyl)phenyl)-N-1,3,4-thiadiazol-2-ylpropanamide]	187 nM
CCC(C)(C(=O)Nc1nccs1)C(c1ccccc1)c1ccccc1 (stereo not drawn) [Example 176, 2-(diphenylmethyl)-2-methyl-N-1,3-thiazol-2-ylbutanamide]	54 nM
CC(C)(C(=O)Nc1nncs1)C(c1ccccc1)c1ccc(Br)cc1 (stereo not drawn) [Example 324, 3-(4-bromophenyl)-2,2-dimethyl-3-phenyl-N-1,3,4-thiadiazol-2-ylpropanamide]	9.36 nM
O=C(Nc1nccs1)C1(C(c2ccccc2)c2ccccc2)CCC1 [Example 153, 1-(diphenylmethyl)-N-1,3-thiazol-2-ylcyclobutanecarboxamide]	23.2 nM
COc1ccc(-c2ccc(C(CC(C)C)C(C)(C)C(=O)Nc3nccs3)cc2)cc1 (stereo not drawn) [Example 391, 2,2,5-trimethyl-3-(4′-(methyloxy)-4-biphenylyl)-N-1,3-thiazol-2-ylhexanamide]	11.1 nM
COc1ccc(-c2ccc(C(c3ccccc3)C(C)(C)C(=O)Nc3nncs3)cc2)cc1F (stereo not drawn) [Example 420, 3-(3′-fluoro-4′-methoxy-4-biphenylyl)-2,2-dimethyl-3-phenyl-N-1,3,4-thiadiazol-2-ylpropanamide]	13.3 nM
CC(C)(C(=O)Nc1nncs1)C(c1ccccc1)c1ccc(-c2cccc(Cl)c2)cc1 (stereo not drawn) [Example 409, 3-(3′-chloro-4-biphenylyl)-2,2-dimethyl-3-phenyl-N-1,3,4-thiadiazol-2-ylpropanamide]	25.4 nM
CC(=O)c1ccc(-c2ccc(C(CC(C)C)C(C)(C)C(=O)Nc3nncs3)cc2)cc1 (stereo not drawn) [Example 438, 3-(4′-acetyl-4-biphenylyl)-2,2,5-trimethyl-N-1,3,4-thiadiazol-2-ylhexanamide]	12 nM
CC(C)CC(c1ccc(-c2ccc3c(c2)CCO3)cc1)C(C)(C)C(=O)Nc1nncs1 (stereo not drawn) [Example 441, 3-(4-(2,3-dihydro-1-benzofuran-5-yl)phenyl)-2,2,5-trimethyl-N-1,3,4-thiadiazol-2-ylhexanamide]	104 nM

Further lines, results first:

Ki	Structure (SMILES)
5.53 nM	CCOc1ccc(-c2ccc(C(c3ccccc3)C(C)(C)C(=O)Nc3nncs3)cc2)cc1 (stereo not drawn) [Example 419, 3-(4′-ethoxy-4-biphenylyl)-2,2-dimethyl-3-phenyl-N-1,3,4-thiadiazol-2-ylpropanamide]
6.83 nM	CC(C)CC(c1ccc(-c2ccc(C(=O)N(C)C)cc2)cc1)C(C)(C)C(=O)Nc1nccs1 (stereo not drawn) [Example 392, 4′-(1-(1,1-dimethyl-2-oxo-2-(1,3-thiazol-2-ylamino)ethyl)-3-methylbutyl)-N,N-dimethyl-4-biphenylcarboxamide]
5.19 nM	Cc1cccc(C(c2ccc(N3CCOCC3)cc2)C(C)(C)C(=O)Nc2nncs2)c1 (stereo not drawn) [Example 235, 2,2-dimethyl-3-(3-methylphenyl)-3-(4-(4-morpholinyl)phenyl)-N-1,3,4-thiadiazol-2-ylpropanamide]
3.68 nM	CN1CCN(C(=O)c2ccc(-c3ccc(C(c4ccccc4)C(C)(C)C(=O)Nc4nncs4)cc3)cc2)CC1 (stereo not drawn) [Example 426, 2,2-dimethyl-3-(4′-((4-methyl-1-piperazinyl)carbonyl)-4-biphenylyl)-3-phenyl-N-1,3,4-thiadiazol-2-ylpropanamide]
5.41 nM	CC(C)CC(c1ccc(N2CCOCC2)cc1)C(C)(C)C(=O)Nc1nncs1 (stereo not drawn) [Example 390, 2,2,5-trimethyl-3-(4-(4-morpholinyl)phenyl)-N-1,3,4-thiadiazol-2-ylhexanamide]
3.53 nM	CN(C)C(=O)c1ccc(-c2ccc(C(c3ccccc3)C(C)(C)C(=O)Nc3nccs3)cc2)cc1 (stereo not drawn) [Example 381, 4′-(2,2-dimethyl-3-oxo-1-phenyl-3-(1,3-thiazol-2-ylamino)propyl)-N,N-dimethyl-4-biphenylcarboxamide]
5.17 nM	CC(C)(C(=O)Nc1nncs1)C(c1ccccc1)c1ccc(Oc2ccccc2)cc1 (stereo not drawn) [Example 322, 2,2-dimethyl-3-phenyl-3-(4-(phenyloxy)phenyl)-N-1,3,4-thiadiazol-2-ylpropanamide]
9.22 nM	COc1ccc(C(c2ccccc2)C(C)(C)C(=O)Nc2nncs2)cc1C (single isomer, unassigned) [Example 294, 2,2-dimethyl-3-(3-methyl-4-(methyloxy)phenyl)-3-phenyl-N-1,3,4-thiadiazol-2-ylpropanamide]
6.08 nM	CC(C)(C(=O)Nc1nncs1)C(c1ccccc1)c1ccc(-c2ccc3c(c2)CCO3)cc1 (stereo not drawn) [Example 415, 3-(4-(2,3-dihydro-1-benzofuran-5-yl)phenyl)-2,2-dimethyl-3-phenyl-N-1,3,4-thiadiazol-2-ylpropanamide]
5.07 nM	CC(C)(C(=O)Nc1nncs1)C(c1ccccc1)c1ccc(Br)cc1 (stereo not drawn) [Example 323, 3-(4-bromophenyl)-2,2-dimethyl-3-phenyl-N-1,3,4-thiadiazol-2-ylpropanamide]

Reference: patent US7968577B2 (Bristol-Myers Squibb Company, priority 2006, dated 2011)
